# Reference: patent US9351973B2, “Pyrazolopyridyl compounds as aldosterone synthase inhibitors” (Merck Sharp & Dohme Corp., priority 2011, dated 2016)
# pIC50: −log10 of the molar value.
# Experiments:
# human CYP11B2 = human CYP11B2 (Homo sapiens (Human), UniProt P19099); assay: V79-Human-CYP11B2 cell assay (aldosterone formation from 11-deoxycorticosterone, HTRF); type: cell-based; conditions: for pIC50: V79 cells stably expressing human CYP11B2, 125 nM 11-deoxycorticosterone, 3 hours
# Description: (§1) Methods for V79-Human-CYP11B2 and V79-Human-CYP11B1 Assays: V79 cell lines stably expressing the either the human CYP11B2 or the human CYP11B1 enzyme were generated using a standard transfection protocol. V79 cells were transfected with plasmids pTriEx3-Hygro-hCyp11B2 or pTriEx3-Hygro-hCyp11B1 using Lipofectamine2000 reagent. V79 cells that stably express the human CYP11B2 or human CYP11B1 enzyme were selected for and maintained in DMEM supplemented with 10% FBS and 400 μg/mL hygromycin for ˜2 weeks. Single cell clones were generated by infinite dilution in DMEM supplemented with 10% FBS and 400 μg/mL hygromycin until single colonies were obtained. Clones V79-hCYP11B2-CLE9 and V79-hCYP11B1-8CLC7, were determined to produce the most aldosterone and cortisol, respectively, and were selected for inhibitor screening. For testing of inhibitors, cells were harvested at 80% confluency with 0.5% Trypsan-EDTA, washed once in PBS, and reconstituted in DMEM+0.1% BSA media at a cell concentration of 600,000 cells/mL for the CYP11B2 assay and 280,000 cells/mL for the CYP11B1 assay. 25 μL of cells were added to a 384 well tissue culture treated plate and mixed with 0.3 μL of inhibitor or DMSO (1% final DMSO concentration) for 1 hour at 37° C., 5% CO2. After pre-incubation with inhibitor, the reaction was initiated by adding 5 μL of substrate (final concentration of 125 nM 11-deoxycorticosterone for the CYP11B2 assay or 250 nM 11-deoxycortisol for the CYP11B1 assay). The reaction was carried out for 3 hours at 37° C., 5% CO2 and was stopped by harvesting the supernatants. The amount of product in the supernatant (aldosterone for CYP11B2 assay and cortisol for the CYP11B1 assay) was measured using HTRF-based assay kit (Aldosterone HTRF-CisBio#64ALDPEB, Cortisol HTRF-CisBio #63IDC002-CORT). IC50s for the inhibitor were determined by plotting the amount of product formed against the concentration of inhibitor using sigmoidal dose-response curve (variable slope) fit in GraphPad.
# human CYP11B1 = human CYP11B1 (Homo sapiens (Human), UniProt P15538); assay: V79-Human-CYP11B1 cell assay (cortisol formation from 11-deoxycortisol, HTRF); type: cell-based; conditions: for pIC50: V79 cells stably expressing human CYP11B1, 250 nM 11-deoxycortisol, 3 hours
# Sequence of human CYP11B1 (P15538 25-503): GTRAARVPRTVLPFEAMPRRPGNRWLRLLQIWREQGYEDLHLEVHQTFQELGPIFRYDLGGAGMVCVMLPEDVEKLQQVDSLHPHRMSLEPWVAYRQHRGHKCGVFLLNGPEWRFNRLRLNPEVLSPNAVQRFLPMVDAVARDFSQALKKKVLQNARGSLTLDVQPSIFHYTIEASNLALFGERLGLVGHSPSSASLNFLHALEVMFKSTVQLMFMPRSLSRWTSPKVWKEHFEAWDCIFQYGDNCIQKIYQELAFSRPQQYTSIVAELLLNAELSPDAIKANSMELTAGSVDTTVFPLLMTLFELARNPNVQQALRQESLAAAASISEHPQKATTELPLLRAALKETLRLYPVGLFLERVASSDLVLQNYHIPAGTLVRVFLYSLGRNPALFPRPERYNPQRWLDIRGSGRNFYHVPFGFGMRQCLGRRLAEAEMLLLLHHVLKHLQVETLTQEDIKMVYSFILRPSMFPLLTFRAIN
# Description: as §1
# Sequence of human CYP11B2 (P19099 25-503): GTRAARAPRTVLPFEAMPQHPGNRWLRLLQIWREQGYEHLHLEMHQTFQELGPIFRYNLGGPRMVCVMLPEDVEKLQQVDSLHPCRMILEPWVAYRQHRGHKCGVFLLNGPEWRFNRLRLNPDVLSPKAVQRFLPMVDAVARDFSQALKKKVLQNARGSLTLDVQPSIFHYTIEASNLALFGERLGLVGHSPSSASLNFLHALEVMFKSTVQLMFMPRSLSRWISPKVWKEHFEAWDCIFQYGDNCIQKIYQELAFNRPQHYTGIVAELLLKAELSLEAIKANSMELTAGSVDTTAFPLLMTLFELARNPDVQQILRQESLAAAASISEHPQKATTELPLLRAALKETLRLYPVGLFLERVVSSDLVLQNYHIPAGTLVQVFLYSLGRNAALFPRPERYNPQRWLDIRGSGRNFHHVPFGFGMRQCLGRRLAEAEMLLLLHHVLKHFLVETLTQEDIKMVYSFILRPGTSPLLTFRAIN
pIC50 (human CYP11B2),pIC50 (human CYP11B1),inhibition at 10 µM (human CYP11B1) [%],inhibition at 1 µM (human CYP11B2) [%],Compound
8.66,6.55,–,–,"Cc1cncc(-c2nn3c(c2C)NC(=O)CC3)c1 [Example 7, 3-methyl-2-(5-methylpyridin-3-yl)-6,7-dihydropyrazolo[1,5-a]pyrimidin-5(4H)-one]"
8.01,5.43,–,–,"Cc1cncc(-c2nn3c(c2C)N(C)C(=O)CC3)c1 [Example 8, 3,4-dimethyl-2-(5-methylpyridin-3-yl)-6,7-dihydropyrazolo[1,5-a]pyrimidin-5(4H)-one]"
8.11,5.63,–,–,"CCc1c(-c2cncc(C)c2)nn2c1N(C)C(=O)CC2 [Example 9, 3-ethyl-4-methyl-2-(5-methylpyridin-3-yl)-6,7-dihydropyrazolo[1,5-a]pyrimidin-5(4H)-one]"
7.88,–,71,–,"Cc1cncc(-c2nn3c(c2C2CC2)NC(=O)CC3)c1 [Example 10, 3-cyclopropyl-2-(5-methylpyridin-3-yl)-6,7-dihydropyrazolo[1,5-a]pyrimidin-5(4H)-one]"
7.72,5.74,–,–,"Cc1c(-c2cncc(F)c2)nn2c1N(C)C(=O)CC2 [Example 12, 2-(5-fluoropyridin-3-yl)-3,4-dimethyl-6,7-dihydropyrazolo[1,5-a]pyrimidin-5(4H)-one]"
7.93,5.87,–,–,"CCc1c(-c2cncc(F)c2)nn2c1NC(=O)CC2 [Example 13, 3-ethyl-2-(5-fluoropyridin-3-yl)-6,7-dihydropyrazolo[1,5-a]pyrimidin-5(4H)-one]"
7.51,5.44,–,–,"Cc1c(-c2cncc(F)c2)nn2c1NC(=O)CC2 [Example 15, 2-(5-fluoropyridin-3-yl)-3-methyl-6,7-dihydropyrazolo [1,5-a]pyrimidin-5(4H)-one]"
6.99,–,38,–,"O=C1CCn2nc(-c3cncc(F)c3)c(C3CC3)c2N1 [Example 19, 3-cyclopropyl-2-(5-fluoropyridin-3-yl)-6,7-dihydropyrazolo[1,5-a]pyrimidin-5(4H)-one]"
–,–,–,61,"Cc1cncc(-c2nn3c(c2C#N)NC(=O)CC3)c1 [Example 25, 2-(5-methylpyridin-3-yl)-5-oxo-4,5,6,7-tetrahydropyrazolo[1,5-a]pyrimidine-3-carbonitrile]"
–,5.97,–,51,"N#Cc1c(-c2cncc(Cl)c2)nn2c1NC(=O)CC2 [Example 26, 2-(5-chloropyridin-3-yl)-5-oxo-4,5,6,7-tetrahydropyrazolo[1,5-a]pyrimidine-3-carbonitrile]"
